The target in experiment [1] is T1, plasma kallikrein (PKa) (Homo sapiens, UniProt P03952).
T1 construct: purchased R & D 2497-SE
The experiment can be described thus: PKa inhibition in kaolin-activated human platelet-poor plasma (PPP). Format: biochemical. As to conditions: Pro-Phe-Arg-AMC substrate, fluorescence signal. As for the experimental part: Test Example 2. Evaluation of the compounds of the present invention in terms of PKa Inhibition in Kaolin-Activated Human PPP: Platelet-poor plasma (PPP) obtained from human whole blood, anticoagulated with Na - Citrate, was incubated with various concentrations of the test compounds and 25, 75, 250, or 750 µg/mL kaolin in assay buffer for 20 minutes at 37°C, so that a concentration response of the test compounds was obtained with respect to various kaolin concentrations. The positive drug was diluted in accordance with the reference concentration and diluted 3-fold with the diluent as the first point.
50 nL of compounds were then transferred to a 384 assay plate containing 2 replicates per well. The 384 assay plate was centrifuged at 1000 rpm/min. 2.5 µL of human plasma working solution was added to each assay well. The 384 assay plate was centrifuged at 1000 RPM. 2.5 µL of kaolin working solution was added to each assay well. The 384 assay plate was centrifuged at 1000 RPM and incubated at 25°C for 20 minutes. 5 µL of Pro-Phe-Arg-AMC working solution was added to each assay well. The 384 assay plate was centrifuged at 1000 RPM and incubated at 25°C for 60 minutes. BMG reads the fluorescence signal.
The percent inhibition of the compound was calculated according to the following formula: [formula]

For experiment [2], the target named is FXIa (Homo sapiens, UniProt P03951). The experiment is described as follows: Inhibitory activity against FXIa in vitro (biochemical assay). As to conditions: values given in µM. Put shortly: (§1)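 Compounds were dispensed acoustically from DMSO and tested in duplicate. IC50 values came from nonlinear regression curve fitting.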
Sequence of FXIa (P03951 388-625 limits assumed): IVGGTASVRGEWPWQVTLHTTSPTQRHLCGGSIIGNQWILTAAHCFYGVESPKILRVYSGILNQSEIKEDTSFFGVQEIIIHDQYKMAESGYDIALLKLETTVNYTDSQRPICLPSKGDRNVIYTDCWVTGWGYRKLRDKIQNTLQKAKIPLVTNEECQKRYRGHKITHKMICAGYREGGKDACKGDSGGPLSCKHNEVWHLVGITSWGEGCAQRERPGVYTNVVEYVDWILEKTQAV
Sequence of FXIa (P03951 19-387 partner limits assumed): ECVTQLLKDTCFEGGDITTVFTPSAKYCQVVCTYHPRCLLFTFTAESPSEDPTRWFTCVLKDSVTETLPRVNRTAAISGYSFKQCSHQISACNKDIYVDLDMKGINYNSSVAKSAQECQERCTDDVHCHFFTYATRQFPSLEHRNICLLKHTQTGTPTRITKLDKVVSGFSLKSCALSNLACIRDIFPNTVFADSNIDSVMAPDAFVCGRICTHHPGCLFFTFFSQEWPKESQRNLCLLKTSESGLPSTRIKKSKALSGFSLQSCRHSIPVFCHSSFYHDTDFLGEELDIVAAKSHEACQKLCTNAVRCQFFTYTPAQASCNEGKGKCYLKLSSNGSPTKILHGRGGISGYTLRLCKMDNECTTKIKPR
Experiment [3] deals with T1, plasma kallikrein (PKa). The experiment can be described thus: Inhibitory activity against plasma kallikrein in vitro (fluorescence intensity enzyme assay, Pro-Phe-Arg-AMC substrate). Format: biochemical. As to conditions: plasma kallikrein enzyme assay, Pro-Phe-Arg-AMC substrate; read-out: PKa IC50. Put shortly:
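Fluorescence intensity enzyme assay with 10 nM enzyme and 60 µM Pro-Phe-Arg-AMC (final concentrations). Compounds in DMSO, tested in duplicate over a dose series. IC50 from nonlinear regression curve fitting.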

Experiment [4] concerns the target KLK1 (Homo sapiens, UniProt P06870). The experiment is described as follows: Inhibitory activity against KLK1 in vitro (biochemical assay). As to conditions: values given in µM. The method, boiled down:
as §1

These results are taken from EP4737450A1 (Longwood Pharmaceuticals (Hangzhou) Co., Ltd, priority 2023, dated 2025).

The structures appear in SMILES notation.

Sequence of KLK1 (P06870 25-262, species assumed): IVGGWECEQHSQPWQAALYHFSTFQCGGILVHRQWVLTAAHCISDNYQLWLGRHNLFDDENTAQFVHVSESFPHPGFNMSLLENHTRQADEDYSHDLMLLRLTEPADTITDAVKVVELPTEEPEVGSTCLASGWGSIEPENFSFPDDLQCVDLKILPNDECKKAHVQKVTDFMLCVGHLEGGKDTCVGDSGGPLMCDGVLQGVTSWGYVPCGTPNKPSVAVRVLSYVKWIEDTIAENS
T1 sequence (P03952 391-638 limits assumed): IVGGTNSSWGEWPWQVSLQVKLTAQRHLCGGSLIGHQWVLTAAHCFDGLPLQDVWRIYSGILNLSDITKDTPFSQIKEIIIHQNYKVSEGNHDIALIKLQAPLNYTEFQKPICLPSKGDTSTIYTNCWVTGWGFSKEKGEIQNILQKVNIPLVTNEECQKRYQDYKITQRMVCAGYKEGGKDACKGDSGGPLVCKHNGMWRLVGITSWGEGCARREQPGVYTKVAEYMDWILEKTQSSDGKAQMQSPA
T1 sequence (P03952 20-390 partner limits assumed): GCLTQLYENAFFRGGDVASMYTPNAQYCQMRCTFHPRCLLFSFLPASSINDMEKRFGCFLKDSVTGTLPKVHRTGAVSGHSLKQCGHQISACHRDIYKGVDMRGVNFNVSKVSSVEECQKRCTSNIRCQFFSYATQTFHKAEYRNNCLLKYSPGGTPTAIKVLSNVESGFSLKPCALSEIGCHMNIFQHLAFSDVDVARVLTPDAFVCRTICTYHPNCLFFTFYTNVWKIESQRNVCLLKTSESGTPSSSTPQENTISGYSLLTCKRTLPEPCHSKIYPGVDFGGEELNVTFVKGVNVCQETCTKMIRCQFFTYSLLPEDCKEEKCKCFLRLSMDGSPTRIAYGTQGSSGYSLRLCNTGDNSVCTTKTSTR

Broadly, the IC50 is the point on the concentration scale where inhibition reaches its midpoint. As for `Nc1noc2ccc(CNC(=O)c3cnn(Cc4ccc(Cn5ccccc5=O)cc4)c3)cc12` [Compound 214], the IC50 in experiment [1] is 14.9 nM; in experiment [2], greater than 10 µM; in experiment [3] it was 0.16 nM; in experiment [4] it was greater than 10 µM.

On to `COCc1nn(Cc2ccc(Cn3ccccc3=O)cc2)cc1C(=O)NCc1ccc(C(=N)N)cc1F` [Compound 241], for which the IC50 is 19.3 nM in experiment [1], greater than 10 µM in experiment [2], 0.08 nM in experiment [3] and greater than 10 µM in experiment [4].

In the case of `N=C(N)c1ccc(CNC(=O)c2cnn(Cc3ccc(CC4CC4)cc3)c2)cn1` [Compound 242], the IC50 in experiment [1] was 40.7 nM; in experiment [2], greater than 10 µM; in experiment [3], 2.27 nM; in experiment [4] it was greater than 10 µM.
